Results on three molecules are retold here after US8110348B2, “Methods and compositions for the diagnosis and treatment of schizophrenia” (priority 2005, dated 2012).

Entries after “also recorded” stand apart in the source; their conditions may differ.

Data set [1] concerns hippocampal neurons. Put plainly: Primary and secondary dendrite number in cultured hippocampal neurons. It is filed as cell-based, rat. The text has this:
In this example, the effects of overexpression of NOS1AP protein in neurons were examined using primary cultures of hippocampal neurons. cDNAs encoding the full-length NOS1AP protein (SEQ ID No. 2) and NOS1AP-S protein (SEQ ID No. 4) were separately cloned into expression vectors and transfected along with GFP (to elucidate neuronal morphology) at 10 days in vitro, a time when dendrite outgrowth and branching is rapidly occurring. It was hypothesized that NOS1AP may affect dendrite number since the NMDA receptor has been implicated in playing a role in regulating dendrite number, and overexpression of NOS1AP is thought to disrupt NMDA receptor signaling. Two days after transfection, the neurons were fixed, and dedrites were counted as described in Akum et al., Nat Neurosci 2004 February; 7(2):145-52, 2004 and Chen et al., Mol Biol Cell 2005 November; 16(11):5103-14. […] Since dendrite morphology is crucial to interneuronal communication, the increases in short-form NOS1AP protein seen in patients suffering from neuropsychiatric disorders, such as schizophrenia and bipolar disorders, may result in altered dendrite morphology in the hippocampus, and perhaps the DLPFC.
Neuronal cultures were prepared from hippocampi of rat embryos at 18 day gestation as described previously (Firestein et al., 1999). The hippocampi were dissociated, and cells were plated on poly-D-lysine-coated glass coverslips (12 mm diameter) at a density of 1800 cells/mm^2. Cultures were maintained in Neurobasal media supplemented with B27, penicillin, streptomycin, and L-glutamine. Cells were grown for 5-21 days in vitro (DIV) and used for specific experiments as indicated below.
cDNAs encoding human NOS1AP and several mutant forms of human NOS1AP were cloned into the expression vector pCMV6-XL4 (Origene). These plasmids are referred to directly as NOS1AP (or NOS1AP mutants) without indicating the vector. In addition, the fusion proteins GFP-NOS1AP-L (GFP-NPL), GFP-NOS1AP-S (GFP-NPS), and GFP-NOS1AP-181-307 (GFP-NOS1AP-M, GFP-NPM) were constructed in the pEGFP-C1 vector (Clontech Inc.). Cultured hippocampal neurons were transfected with the appropriate cDNA constructs as follows. Neurons were transfected on DIV 10 using […] following the manufacturer's protocol (Qiagen Inc.). Neurons were transfected on DIV 2, 5, or 7 using LIPOFECTAMINE-2000 following the manufacturer's protocol (Invitrogen Inc.). The Amaxa Nucleofector kit for Rat Neurons (Amaxa Inc., kit VPG-1003) was used to transfect newly dissected neurons (DIV 0) before plating.
Neurons were fixed in 4% paraformaldehyde in PBS for 30 minutes and then incubated in blocking solution (PBS containing 0.1% Triton X-100, 2% normal goat serum, and 0.02% sodium azide) for 1 h. All antibodies used were diluted in blocking solution. For GFP and NOS1AP or GFP and HA double immunostaining, dilutions of 1:1000 for rat anti-GFP and 1:500 for rabbit anti-NOS1AP, or 1:500 for goat anti-NOS1AP, or 1:1000 for mouse anti-HA (CRP Inc.) were used. […] Labeled cells were visualized by immunofluorescence on an Olympus Optical (Tokyo, Japan) IX50 microscope with a Cooke Sensicam charge-coupled device cooled camera fluorescence imaging system and Image Pro software (Media Cybernetics, Silver Spring, Md.).
Primary and secondary dendrite numbers were counted by hand with the experimenter blinded to the conditions (Akum et al., 2004). Pictures of neurons were contrast-enhanced and the numbers of primary and secondary dendrites for each neuron were recorded. […]

The test system of data set [2] is NOS1AP. Put plainly: Knockdown of endogenous NOS1AP protein, immunofluorescence intensity in primary dendrites. In kind it is cell-based, rat. The note with it: hippocampal neurons transfected DIV 10, fixed DIV 12 (48 hours). The text has this: A) Hippocampal neurons were transfected with either pSUPER-scramble shRNA or pSUPER-NOS1AP shRNA at DIV10 and fixed at DIV12. B) Quantification of primary dendrites shown. C) Hippocampal neurons transfected with the same vectors as in A at DIV10 and fixed and immunostained for NOS1AP at DIV12. Zoomed inset indicates a representative region of primary dendrite showing corresponding fluorescence intensities of anti-NOS1AP. D) Quantification of NOS1AP levels in primary dendrite regions, as represented by normalized (total intensity/area) fluorescence intensity levels. *p<0.05 by Student's t-test.
A shRNA was constructed to knock down NOS1AP-L with the sequence 5′-[…]-3′ (SEQ ID NO: 22; position 790 of NM_138922) using the pSUPER vector. The resulting siRNA is specific to the long isoform of NOS1AP. […] Importantly, primary dendrite number increases by 67% when NOS1AP is knocked down (FIGS. 16A and B).

On to `N[C@@H](CCCP(=O)(O)O)C(=O)O` [APV], for which, in data set [1] (NOS1AP-L transfected neurons treated with APV), the “additional decrease in dendrite branching” value is “does not result in any additional decrease”. Besides, the “drop in primary dendrite branching” value in data set [1] (control cells transfected with GFP alone, dosage of APV expected to fully block NMDA receptor function) was “approximately 25%”.
As for `COC(=O)[C@@H](N)CCCNC(=N)N[N+](=O)[O-]` [L-NAME, N(ω)-nitro-L-arginine-methyl ester], the “difference in secondary dendrite number, NOS1AP-Long alone vs with L-NAME” value in data set [1] (500 μM L-NAME, FIG. 10C) was “smaller, yet the distinction was still clear”. Besides, in data set [1] (L-NAME 500 μM (FIG. 10 legend prints 500 nM) added right after transfection DIV 10, fixed DIV 12), the “effect on NOS1AP-Long effects on dendrite branching” value is “partial reduction of NOS1AP-Long effects; also recorded: reduced NOS1AP-Long (CP-L) activity”.
Take “shRNA against NOS1AP-L: shRNA to knock down NOS1AP-L, sequence 5′-GCAATATCTTCAGATGCAA-3′ (SEQ ID NO: 22), in the pSUPER vector”: the results for the “decrease in NOS1AP expression (knockdown of endogenous NOS1AP protein)” value in data set [2], in data set [2] (listed as SEQ ID NO: 22) and in data set [2] (listed as shRNA Against NOS1AP Coding Sequence (Position 398)) were 40%, 40% and “Approximately 45%”, respectively. Also, the “increase in primary dendrite number” value in data set [1] (NOS1AP knocked down, DIV 10-12, 48 hours, vs scramble shRNA) turned out to be 67%.
